Assay results: the NIST ThermoML archive (doi:10.1021/je400581e)
± gives the expanded uncertainty stated by the source.

Columns and labels:
[1] = Liquid; for mass density: 298.15 K, 101.33 kPa, Vibrating tube method
[2] = refractive index (Na D-line) (dimensionless); conditions: 298.15 K; 101.33 kPa; Liquid; Standard Abbe refractometry

CC(C)CO [2-methyl-1-propanol]
Conditions | mass density [kg/m3] | refractive index
[1] | 795.35 ± 0.15 | –
[2] | – | 1.3927 ± 0.0007

[1], Ebulliometric method (Recirculating still)
Conditions | vapor or sublimation pressure [kPa]
347.84 K | 26.2 ± 0.15
351.07 K | 30.19 ± 0.17
359.54 K | 43.66 ± 0.19
362.99 K | 50.45 ± 0.23
368.56 K | 63.25 ± 0.26
372.09 K | 72.73 ± 0.42
372.56 K | 74.66 ± 0.42
375.06 K | 81.58 ± 0.32
378.19 K | 91.8 ± 0.36
380.73 K | 101.32 ± 0.38
382.25 K | 106.5 ± 0.35

CC(C)CCO [3-methylbutan-1-ol]
Conditions | mass density [kg/m3] | refractive index
[1] | 806.21 ± 0.12 | –
[2] | – | 1.4035 ± 0.0007

[1]
Conditions | vapor or sublimation pressure [kPa]
395.68 K | 74.7 ± 6.6
404.7 K | 101.3 ± 12
404.71 K | 101.3 ± 3.4

CC(C)O [propan-2-ol]
Conditions | mass density [kg/m3] | refractive index
[1] | 779.36 ± 0.15 | –
[2] | – | 1.374 ± 0.0007

[1], Ebulliometric method (Recirculating still)
Conditions | vapor or sublimation pressure [kPa]
325.2 K | 26.21 ± 0.16
328 K | 30.2 ± 0.19
335.73 K | 43.66 ± 0.2
338.88 K | 50.43 ± 0.25
343.99 K | 63.24 ± 0.28
347.25 K | 72.74 ± 0.33
347.86 K | 74.65 ± 0.34
349.98 K | 81.59 ± 0.36
352.84 K | 91.8 ± 0.38
355.37 K | 101.3 ± 0.4
356.56 K | 106.52 ± 0.45
